Laboratory results from patent US12678511B2, “Peptide and use thereof” (Kansai Medical University Educational Corgoration, priority 2019, dated 2026).
Entries after “also recorded” stand apart in the source; their conditions may differ. Peptide text beside a SMILES is read from it.

Legend:
[1] = Degradation resistance in human plasma (MALDI-TOFMS); assay type: in vitro ADME; conditions: human plasma 50% by mass, 0 to 120 minutes, FIG. 4
From the text: For the single peptide, tandem peptide, and tandem mutated peptide of MSCPP106 shown below in Table 2, the degradation resistance in human plasma was investigated. In Table 2, “tandem MSCPP106” describes a peptide composed of sequence containing two repeated amino acid sequences for MSCPP106 linked via a glycine residue spacer. Further, “tandem mut MSCPP106” describes a peptide composed of a sequence in which the cysteine residues in the amino acid sequence of tandem MSCPP106 have been methylated (mC).
Each of the above peptides was added to human plasma with a concentration of 50% by mass, the mixture was then sampled immediately after starting the degradation test (0 minutes), and then after 5 minutes, after 10 minutes, after 20 minutes, after 30 minutes, after 60 minutes and after 120 minutes, and each sample was analyzed by MALDI-TOFMS (Matrix Assisted Laser Desorption/Ionization-Time of Flight Mass Spectrometry). The ratio of the mass of the retained peptide that had not degraded at each of the sampling points from the start of the test, relative to the mass of the peptide (100% by mass) at the start of the test was calculated and graphed (see FIG. 4).

hMSC [2] = experiment: Intracellular localization of [FAM]-tandem MSCPP106 in hMSC; assay type: cell-based, human; conditions: [FAM]-labelled, 4 μM, fluorescence maintained in lysosomes, FIG. 6
Procedure: Next, the intracellular localization of [FAM]-tandem MSCPP106 was investigated. Specifically, hMSC were inoculated into a 24-well plate to achieve 4×10^4 cells/well, and four hours after the inoculation, the medium was replaced with an RPMI medium containing 10% FBS, and culturing was conducted for 60 hours. Following culturing, a medium (RPMI 1640 medium containing 10% FBS) containing 4 μM of [FAM]-tandem MSCPP106 was added to the hMSC and cultured for 24 hours. Following culturing, nuclear staining was conducted with Hoechst 33342 (excitation wavelength: 352 nm, fluorescence wavelength: 461 nm), lysosomes were also stained using LysoTracker (a registered trademark) RED DND-99 (a lysosome content marker, excitation wavelength: 555 nm, fluorescence wavelength: 584 nm), and the cultures were then observed using a phase difference/fluorescence microscope (magnification: 60×). In FIG. 6, “Merge” indicates a merged image of the FAM fluorescence image and the LysoTracker (a registered trademark) RED DND-99 fluorescence image.

[3] = test system: CAF of the cancer stroma, subcutaneous tumor; experiment: Absorption into CAF of cancer stroma in scirrhous cancer model mouse; assay type: in vivo; conditions: [FAM]-labelled, 300 μg intravenous, 30 minutes after injection, FIG. 8C
Procedure: Using the same method as Example 7, a scirrhous cancer model mouse was obtained. Subsequently, the obtained scirrhous cancer model mouse was injected intravenously with [FAM]-tandem MSCPP106 (300 μg). Subsequently, the pharmacokinetics of the peptide 30 minutes after the intravenous injection were analyzed by tissue analysis of the freshly dissected specimen of the peptide-administered mouse.
FIG. 8C is a series of phase difference microscope images and fluorescent images of the subcutaneous tumor. The upper two rows are images at a magnification of 20×, whereas the lower two rows are images at a magnification of 40×. Further, “Merge” represents merged images of each phase difference microscope image and each fluorescent image.

[4] = test system: cancer stroma, subcutaneous tumor (BxPC3 cells and DsRed2 hMSC); experiment: Absorption of [FAM]-tandem and [FAM]-tandem mut MSCPP106 into cancer stroma in scirrhous pancreatic cancer model mice; assay type: in vivo, mouse; conditions: [FAM]-labelled, 300 μg intravenous, 60 minutes after injection
From the text: Next, in order to investigate the functional importance of the cysteine within the peptide sequence (positioned second from the N-terminus), a comparison was made of the absorption into cancer stroma of [FAM]-tandem MSCPP106 and [FAM]-tandem mut MSCPP106 (having a sequence in which the N-terminus is labeled with FAM, and having a mutation in which the side-chain —SH group of the cysteine second from the N-terminus has been methylated). With the exception of using cloned hMSC cells that constantly expressed DsRed2, the same method as Example 7 was used to obtain scirrhous pancreatic cancer model mice. Subsequently, the obtained scirrhous pancreatic cancer model mice were injected intravenously with [FAM]-tandem MSCPP106 or [FAM]-tandem mut MSCPP106 (300 μg in each case). In each case, the pharmacokinetics of the peptide 60 minutes after the intravenous injection were then analyzed by tissue analysis of the freshly dissected specimen of the peptide-administered mouse.
FIG. 9B is a series of fluorescent images of subcutaneous tumors in mice administered with [FAM]-tandem MSCPP106 or [FAM]-tandem mut MSCPP106 (magnification: 4×).
FIG. 9C is a series of fluorescent images of a subcutaneous transplanted tumor in a mouse administered with tandem MSCPP106 (magnification: 4×, 20× and 40×). […]

[5] = test system: human mesenchymal stem cells (hMSC), line UE6E7T-3; experiment: Penetration of MSCPP-EGFPHIS fusion peptides into hMSC (fluorescence microscopy); assay type: cell-based; conditions: MSCPP-EGFPHIS fusion peptide, cultured four hours, FIG. 1
From the text: Using an independently prepared 9-amino acid residue peptide as a phenotype linked via puromycin to a protein-RNA chimeric random peptide library (in vitro virus library; IVVL) having an mRNA coding sequence as the corresponding genotype, a conventional IVV (in vitro virus) method was used with human mesenchymal stem cells (hMSC) as the absorption target cells to repeat a reaction cycle in a culture system, thus isolating 81 types of peptide having penetration into mesenchymal stem cells (mesenchymal stem cell-penetrating peptide; MSCPP).
Next, fusion peptides (having a His tag formed from six histidine residues at the C-terminus of the fusion peptide) of each of the 81 isolated MSCPP and EGFP (excitation wavelength: 488 nm, fluorescence wavelength: 509 nm) (MSCPP-EGFPHIS) were produced. The penetration properties into hMSC were evaluated for each of the MSCPP-EGFPHIS. Cells of the hMSC line UE6E7T-3 were used as the hMSC. An RPMI 1640 medium containing 10% FBS was used as the medium. The UE6E7T-3 cells were inoculated into a 96-well plate, medium containing each MSCPP-EGFPHIS (5 μL of fusion peptide solution and 50 μL of medium per well) was added, and the mixtures were cultured for four hours. Following culturing, the cells were inspected under a fluorescence microscope. In FIG. 1, “EGFPHIS” represents EGFP having a His tag formed from six histidine residues at the C-terminus, but not being fused with an MSCPP peptide. Further, “Poly-r9” (9-residue continuous D-arginine) is a non-selective membrane-permeable peptide that is currently widely used.

hMSC [6] = experiment: Cell selectivity of FITC-labelled peptides: penetration into hMSC; assay type: cell-based, human; conditions: FITC-labelled peptide 4 μM, four hours, FIG. 2
Procedure: (§1) Among the peptides identified in Example 1, the four peptides MSCPP33, 48, 49 and 106, Poly-r9 as a positive control and MSCPP22 as a negative control were synthesized with an FITC (fluorescein isothiocyanate) (excitation wavelength: 495 nm, fluorescence wavelength: 520 nm) label, and then subjected to a hydrochloride treatment. These peptides were each obtained via contract synthesis by Sigma-Aldrich Japan (Genosis division). The MSCPP33 was dissolved in 20% DMSO. The MSCPP48 developed a precipitate following thawing of the frozen state, and was therefore subjected to a sonication treatment prior to use. The MSCPP49 and MSCPP106 were dissolved in water prior to use.
Subsequently, the penetration of each peptide into hMSC, normal human dermal fibroblasts (NHDF), and BxPC3 cells, which are an established cell line derived from human pancreatic adenocarcinoma, was confirmed. In the case of the hMSC, cells that had been inoculated into a 24-well plate at 4×10^4 cells/well and then cultured for 24 hours in an MSC medium were used. In the case of the NHDF and BxPC3 cells, cells that had been inoculated into a 24-well plate at 4×10^4 cells/well and then cultured for 24 hours in an RPMI 1640 medium containing 10% FBS were used. Mediums (RPMI 1640 medium containing 10% FBS) containing 4 μM of each of the peptides were then added to each of the cells and cultured for four hours. Following culturing, each of the cells was subjected to nuclear staining with Hoechst 33342 (excitation wavelength: 352 nm, fluorescence wavelength: 461 nm), and was then observed using a phase difference/fluorescence microscope. In FIG. 2, the images shown on the left side are FITC fluorescence images, and the images shown on the right side are merged images of the fluorescence image and the phase difference microscope image.

[7] = test system: normal human dermal fibroblasts (NHDF); experiment: Cell selectivity of FITC-labelled peptides: penetration into NHDF; assay type: cell-based; conditions: FITC-labelled peptide 4 μM, four hours, FIG. 2
Procedure: as §1
(§2) Subsequently, the penetration of each peptide into hMSC, normal human dermal fibroblasts (NHDF), and BxPC3 cells, which are an established cell line derived from human pancreatic adenocarcinoma, was confirmed. […] Following culturing, each of the cells was subjected to nuclear staining with Hoechst 33342 (excitation wavelength: 352 nm, fluorescence wavelength: 461 nm), and was then observed using a phase difference/fluorescence microscope. In FIG. 2, the images shown on the left side are FITC fluorescence images, and the images shown on the right side are merged images of the fluorescence image and the phase difference microscope image.

BxPC3 cells = experiment: Cell selectivity of FITC-labelled peptides: penetration into BxPC3 cells; assay type: cell-based, human; conditions: FITC-labelled peptide 4 μM, four hours, FIG. 2
Procedure: as §1, §2

| Molecule | degradation resistance in human plasma [1] | penetration into human bone marrow-derived mesenchymal stem cells (hMSC) [5] | absorption into hMSC (hMSC [6]) | also measured |
| --- | --- | --- | --- | --- |
| CC(C)C[C@H](NC(=O)[C@H](Cc1c[nH]cn1)NC(=O)[C@H](CCCNC(=N)N)NC(=O)[C@H](Cc1ccccc1)NC(=O)[C@H](CC(C)C)NC(=O)[C@H](CCC(=O)O)NC(=O)[C@H](C)NC(=O)[C@H](CS)NC(=O)[C@H](CCCCN)NC(=O)CNC(=O)[C@H](CC(C)C)NC(=O)[C@H](Cc1c[nH]cn1)NC(=O)[C@H](CCCNC(=N)N)NC(=O)[C@H](Cc1ccccc1)NC(=O)[C@H](CC(C)C)NC(=O)[C@H](CCC(=O)O)NC(=O)[C@H](C)NC(=O)[C@H](CS)NC(=O)[C@@H](N)CCCCN)C(=O)O [tandem MSCPP106, KCAELFRHL-G-KCAELFRHL] (H-KCAELFRHLGKCAELFRHL-OH; N-terminus and C-terminus assumed) | excellent degradation resistance compared with the single MSCPP106 | – | – | resistance to intracellular digestion (degradation) (hMSC [2]): at least 24 hours; absorption into the CAF of the cancer stroma [3]: selective absorption; absorption into cancer stroma, comparison of peptides ([4]; FIG. 9B): even better absorption into cancer stroma than tandem mut MSCPP106; absorption into hMSC-derived hCAF and mouse MSC-derived CAF ([4]; FIG. 9C): excellent absorption into both forms of CAF |
| CSC[C@H](NC(=O)[C@H](CCCCN)NC(=O)CNC(=O)[C@H](CC(C)C)NC(=O)[C@H](Cc1c[nH]cn1)NC(=O)[C@H](CCCNC(=N)N)NC(=O)[C@H](Cc1ccccc1)NC(=O)[C@H](CC(C)C)NC(=O)[C@H](CCC(=O)O)NC(=O)[C@H](C)NC(=O)[C@H](CSC)NC(=O)[C@@H](N)CCCCN)C(=O)N[C@@H](C)C(=O)N[C@@H](CCC(=O)O)C(=O)N[C@@H](CC(C)C)C(=O)N[C@@H](Cc1ccccc1)C(=O)N[C@@H](CCCNC(=N)N)C(=O)N[C@@H](Cc1c[nH]cn1)C(=O)N[C@@H](CC(C)C)C(=O)O [tandem mut MSCPP106, KmCAELFRHL-G-KmCAELFRHL] (H-KC(Me)AELFRHLGKC(Me)AELFRHL-OH; N-terminus and C-terminus assumed) | excellent degradation resistance compared with the single MSCPP106 | – | – | – |
| KCAELFRHL [MSCPP106] | – | exhibited penetration | high absorption and fixed selective absorption; also recorded: efficient absorption | fluorescence observed in hMSC [5]: Particularly strong fluorescence; absorption into NHDF [7]: lower absorption into NHDF compared with the absorption into hMSC; absorption into the pancreatic cancer cells BxPC3 (BxPC3 cells): low absorption |
| RRWMQWPWH [MSCPP49] | – | exhibited penetration | high absorption and fixed selective absorption | – |
| RTHPVWSRT [MSCPP48] | – | exhibited penetration | high absorption and fixed selective absorption | – |
| WPPLQRWRN [MSCPP33] | – | exhibited penetration | high absorption and fixed selective absorption | – |
